Measurements taken from patent publication US20050222078A1, “Use of pyrimidine nucleotides for the treatment of affections of the peripheral nervous system” (priority 2002, published 2005).

Assays:
[1] = test system: traumatically affected peripheral nerves; settings: Wistar rats, B. Wattig et al. 1991; cited from earlier work
patients with lumbago = assay: Clinical study of UMP versus placebo in patients with lumbago; format: in vivo
Method: In the following the effectivity of pyrimidine nucleotides for the treatment of affections of the peripheral nervous system as well as for the stimulation of the regeneration of nerves is described by example of uridine-5′-monophosphate (UMP) by example of the indication lumbago. 80 female as well as male patients, aged between 20 and 63 years, were separated randomly into two groups, one was treated with UMP and the other with placebo. The treatment ranged over four consecutive days, whereas the treatment could be terminated ahead of schedule as soon as the symptoms were ameliorating in a way, that a further treatment was needless. Applied was once per day into a vein of the arm an injection solution of 19.349 mg UMP (this corresponds to a mass of 12.834 mg uridine) in 250 ml of physiological sodium chloride solution over a time period of 30 minutes. The comparison group received as placebo only the 250 ml of physiological sodium chloride solution without an active agent. For this clinical study only patients were chosen with a pain intensity of at least 40 mm on the VAS scale (VAS: visual analogue scale). The pain intensity is given on the linear VAS scale in the unit “mm” and was determined by prompting the patients to mark on the linear VAS scale the point, which corresponded to their respective pain intensity. Thereby a non sensible pain was given with the value 0 mm and the possibly maximum pain with the value 100 mm. The pain intensity of the patients was continuously checked, whereas the patients also had to indicate the respective duration of the single pain periods. Table 1 proves, that already after a short time period after the initial injection the pain intensity strongly decreases in the resting and moving state in the case of the UMP patient group. The finger-floor distance represents a measure for the mobility, i.e. for the grade of capability to bend the back, and is given in the unit “cm”, whereas the distance between the finger tip in the case of outstretched arms and the curvature in the case of maximal possible bending of the back was measured.

[2] = decrease in the UMP patient group
[3] = decrease of pain in the UMP patient group, VAS
[4] = difference of decrease, UMP versus placebo group

Structure (SMILES): Nc1ccn([C@@H]2O[C@H](COP(=O)(O)O)[C@@H](O)[C@H]2O)c(=O)n1 [CMP, cytidine-5′-monophosphate]
- Filament area of nerve filaments (myelin and axon areas) [1]: no comparable results

Structure (SMILES): O=c1ccn([C@@H]2O[C@H](COP(=O)(O)O)[C@@H](O)[C@H]2O)c(=O)[nH]1 [UMP, uridine-5′-monophosphate]
- Filament area of nerve filaments (myelin and axon areas) [1]: no comparable results
- Presence of myogelosis (patients with lumbago; UMP patient group, 24 h after inj., base line 100%): 90%
- Pain during resting state (patients with lumbago; VAS scale, average of UMP patient group, 24 h after inj., 19.349 mg UMP i.v. once per day, base line 60.3): 46.2 mm
- Pain during movement (patients with lumbago; VAS scale, average of UMP patient group, 24 h after inj., base line 76.1): 56.9 mm
- Daily duration of pain (patients with lumbago; average of UMP patient group, 24 h after inj., base line 15.8): 10.7 h
- Finger-floor distance (patients with lumbago; average of UMP patient group, 24 h after inj., base line 43.8): 32.5 cm
- Δ UMP, Daily duration of pain (patients with lumbago; [2]): -4.3 h
- Δ UMP, Finger-floor distance (patients with lumbago; [2]): −10.1 cm
- Δ UMP, Pain during movement (patients with lumbago; [3]): −17.9 mm
- Δ UMP, Pain during resting state (patients with lumbago; [3]): −12.8 mm
- Δ UMP − Δ Placebo, Daily duration of pain (patients with lumbago; [4]): -1.4 h
- Δ UMP − Δ Placebo, Finger-floor distance (patients with lumbago; [4]): −2.7 cm
- Δ UMP − Δ Placebo, Pain during movement (patients with lumbago; [4]): −6.8 mm
- Δ UMP − Δ Placebo, Pain during resting state (patients with lumbago; [4]): −3.4 mm
- Absolute values of test parameters (pain, daily duration of pain, finger-floor distance) versus placebo group (patients with lumbago; during the further three days): always below the corresponding absolute values for the placebo group
- Decrease in pain compared to placebo patients (patients with lumbago; within the initial 24 h after the first injection): clear decrease in pain
